Results from PubChem BioAssay AID588383 (NMMLSC, 2011).
Active and inactive are the calls of the source.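 Rule for the calls: active = half-effect concentration at most 10 µM with response change of 30% or more and an acceptable curve fit; inactive = the rest.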

Target: GTPase HRas (Homo sapiens) (UniProt P01112)
Experiment: Ras wild-type GTP-binding inhibitors, SAR follow-up, selectivity assay for Cdc42 probe extension project, biochemical, multiplex bead flow cytometry, round 1 (AID 588383)
Details: GST-Ras wt beads, Bodipy-FL-GTP binding; for % response, lower = inhibition: at 100 µM (top of the series)

Sequence of GTPase HRas (Homo sapiens) (P01112 whole entry, looked up): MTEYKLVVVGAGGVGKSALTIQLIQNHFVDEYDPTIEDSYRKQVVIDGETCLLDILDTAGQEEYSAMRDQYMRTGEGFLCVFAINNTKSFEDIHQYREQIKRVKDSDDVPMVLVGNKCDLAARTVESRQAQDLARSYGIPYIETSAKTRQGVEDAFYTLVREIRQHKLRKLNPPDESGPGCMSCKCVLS

Compound	EC50	% response, lower = inhibition
CC1(C)Cc2c(sc(NC(=S)NC(=O)c3ccccc3)c2C(=O)O)CO1	78 nM	–
NS(=O)(=O)c1ccc(N2N=C(c3ccccc3)CC2c2ccccc2)cc1 (centres undefined)	–	inactive
COc1ccc(C2CC(c3ccccc3)=NN2c2ccc(S(N)(=O)=O)cc2)cc1 (centres undefined)	–	inactive
O=C(C#Cc1ccccc1)c1cccc([N+](=O)[O-])c1	–	inactive
